Entries after “also recorded” stand apart in the source; their conditions may differ.
Assays:
Detroit-562 cells = assay: MTT cytotoxicity assay on Detroit-562 cells; format: cell-based
From the text: The SCC-25 (ATCC® CRL-1628™), Detroit-562 (ATCC® CCL-138™), and THP-1 (ATCC® TIB-202™) cells were purchased from Rio de Janeiro Cell Bank (Duque de Caxias, Brazil), and NOK-si was kindly provided by Prof. Carlos Rossa from the School of Dentistry—UNESP. All the cells were cultivated according to standard conditions. Human colorectal adenocarcinoma HCT116 cell lines (ATCC® CCL-247™) expressing p53 and its p53-null isogenic derivative (HCT116 p53^−/−) were provided by B. Vogelstein (The Johns Hopkins Kimmel Cancer Center, Baltimore, MD, USA).
Cells (NOK-si, SCC-25, and Detroit-562) were grown in a DMEM medium (Dulbecco’s Modified Eagle Medium), supplemented according to the needs of each lineage, as recommended by its cell banks, with 2 mM L-glutamine, 10% or 20% fetal bovine serum (FBS), 1% antibiotic–antimycotic solution (5 mg/mL penicillin, 5 mg/mL streptomycin, and 10 mg/mL neomycin), 4.5 g/L of glucose, and 3.7 g/L of sodium bicarbonate (NaHCO3). All cell lines were cultured in flasks at 37 °C in 5% carbon dioxide (CO2) and 95% of relative humidity. The assays were conducted between the third- and the seventh-cell passage, with sub-cultures every 3–4 days to maintain exponential growth. The cell viability was checked using the trypan blue dye exclusion assay for all experiments, where over 95% of the cells were viable at the beginning of the tests. NOK-si, SCC-25, and Detroit-562 were initially thawed and cultured in 25 cm^2 cell culture flasks. Cell growth was monitored using a microscope, and the culture medium was changed periodically. […] Absorbance was read at 562 nm using an EZ Read 400 microplate reader (Biochrom, Cambridge, UK) and ADAP 2.0 Biochrom software (version 2.0). IC50 values and graphs were calculated using Excel and Prism software (version 10.4.1). The MTT assay results were evaluated for normality using the Shapiro–Wilk test, followed by one-way ANOVA with Tukey’s post hoc test at a significance level of 5%.

SCC-25 cells [1] = assay: Annexin V-FITC/PI apoptosis/necrosis assay; format: cell-based, human; conditions: SCC-25, 44.3 μM, 24 h
Experimental: For the assessment of the type of cell death, the treatment groups were 44.3 μM, 22.1 μM, and 9.45 μM compound 5, and the negative control without any treatment (only DMEM medium). Then, after 24 h of treatment, cell suspensions of 1 × 10^6 mL^–^1 (SCC-25) of each experimental condition were labeled, and the assay was performed according to the manufacturer’s protocol with the FITC Annexin V/Dead Cell Apoptosis Kit (Life Technologies, Eugene, OR, USA). Annexin V-FITC conjugated (510 nm) and propidium iodide (PI, 610 nm) fluorescence intensity were detected by automatic reading with the Countess™ II FL Automated Cell Counter (Life Technologies, Carlsbad, CA, USA). The cell population was calculated as a percentage of apoptotic cells labeled only with annexin V-FITC conjugated (green), necrotic cells labeled only as PI (red), and late apoptotic/necrotic cells (green and red).

[2] = Metabolic stability in mouse (CD-1) liver microsomes; format: in vitro ADME
Experimental: The metabolic stability of test compounds and controls [imipramine (Sigma-Aldrich, St. Louis, MO, USA), verapamil (Sigma-Aldrich, St. Louis, MO, USA), and warfarin (Sigma-Aldrich, St. Louis, MO, USA)] were assessed using human pooled liver human microsomes (20 mg/mL) (GIBCO, Frederick, MD, USA) and pooled liver CD1 mouse microsomes (20 mg/mL) (GIBCO, Frederick, MD, USA). […] Microsomal suspensions were thawed and diluted in phosphate buffer to obtain a final concentration of 0.25 mg/mL. A solution of NADPH (Sigma-Aldrich, St. Louis, MO, USA) at […] was also prepared in phosphate buffer. […] The plate was incubated at 37 °C under shaking (100 rpm). […] The reactions were stopped by adding quenching solution (75 μL) consisting of acetonitrile:methanol (1:1) with an internal standard (50 nM). Samples were centrifuged (3500 rpm, 30 min) to remove precipitated microsomal proteins, and the supernatant fractions were analyzed by an LCMS-8045 system (Shimazu, Kyoto, Japan). The chromatographic analysis was performed using a Supelco Ascentis Express C18 column (3 cm × 2.1 mm, 5 μm). The mobile phases consisted of water + 0.1% formic acid (A) and acetonitrile + 0.1% formic acid (B). […] The run time was 2 min, with a sample injection volume of 10 μL and a flow rate of 0.7 mL/min. Metabolic stability was assessed by calculating the peak area ratios (analyte/internal standard) and converting them into the percentage of the compound remaining, using the area ratio at time 0 as 100%.

SCC-25 cells [3] = assay: Microscopy of cells after incubation with compound; format: cell-based, human; conditions: 24 h of incubation, 9.45 μM, SCC-25 vs NOK-si

microsomal CLint at 0.51 μM ([2]; CD-1, mouse, microsomes, pH 7.4): 36 µL/min/mg
half-life at 0.51 μM ([2]; CD-1, mouse, pooled liver microsomes, pH 7.4, read-out: Mouse Liver Microsome (MsLM) T1/2): 56.8 min
Mouse Liver Microsome (MsLM) T1/2 ([2]; mouse): 77.02 min
Compound: COc1cccc(C(=O)/C=C/c2cccc(B(O)O)c2)c1 [Compound 5, (E)-(3-(3-(3-methoxyphenyl)-3-oxoprop-1-en-1-yl)phenyl)boronic acid]
IC50 (Detroit-562 cells; Homo sapiens, MTT, 24 h incubation, Detroit-562 metastatic pharyngeal cancer model): 33.1 ± 5.1 µM
SI against the metastatic cell line (NOK-si vs Detroit-562) (Detroit-562 cells; selectivity index): greater than 1.7
viability at 44.3 µM (SCC-25 cells [1]; Homo sapiens, read-out: proportion of viable cells): < 5%
type of cell death (SCC-25 cells [1]; 22.1 μM and 9.45 μM): necrosis; also recorded: predominantly induces necrotic cell death
morphological alterations (SCC-25 cells [3]): morphological alterations suggesting cell death features

Reference: PMC12301034, “Design and Synthesis of Boronic Chalcones with Dual Anticancer and Anti-Inflammatory Activity” (Molecules, 2025)
